In article PMC9066070, “RGI‐GOLVEN signaling promotes cell surface immune receptor abundance to regulate plant immunity” (EMBO Reports, 2022):
“Also recorded” adds a separate entry of the source. Non-standard residues stand in square brackets, D forms with d. Residues, ends and D or L forms follow the SMILES beside them. No end group written: not given here. *: point of attachment. SO3H = sulfated tyrosine (TyrSO3H2), O=S(=O)(O)*; Hyp = O=C(O)[C@@H]1C[C@@H](O)CN1; Cbz = O=C(OCc1ccccc1)*

Tests used:
26S proteasome = test: FLS2 accumulation in rgi5x after MG132 treatment, western blot; format: in vivo, Arabidopsis thaliana; settings: rgi5x seedlings, 50 μM MG132, 1 h
Experimental: Figure 6 GLV2 perception by RGIs promotes maximal FLS2 abundance independent of transcription • Twelve‐day‐old WT or 35S::GLV2 8‐5 seedlings were treated with mock or 1 μM GLV2 for 24 h before protein extraction. Western blots were probed with α‐FLS2 or α‐BAK1 antibodies. CBB: Coomassie brilliant blue. • Quantitative real‐time PCR of FLS2 transcripts from 12‐day‐old seedlings treated with mock or 1 μM GLV2 for the indicated time, n = 3 biological replicates. UBQ was used as a house keeping gene. […] Western blot was probed with α‐FLS2 antibodies. • Protein extraction was performed from 12‐day‐old seedlings after 1 h treatment with mock or 50 μM MG132. Western blots were probed with α‐FLS2 antibodies. Data information: Similar results were obtained in three independent experiments. Source data are available online for this figure.

FLS2 transcription = system: FLS2 transcription; parameters: method as in Flury et al, 2013; Tintor et al, 2013; Hou et al, 2014; settings: ref Flury et al, 2013, Tintor et al, Hou et al, 2014; cited from earlier work
PRR-BAK1 complex = settings: ref Stegmann et al, 2017; cited from earlier work
Excerpt: FER controls FLS2-BAK1 and EFR-BAK1 complex formation independent of protein accumulation ([…] et al, [2017]). In contrast to GLV2 treatment, the FER ligand RALF23 inhibits PRR-BAK1 complex formation. […] Whether GLV2's promotion of PRR complex formation and the regulation of PRR ...

[1] = target: T1, ectodomain of RGI3 with C-terminal Strep II-9x His tag (RGI3^ECD-Strep II-9x His) (Arabidopsis thaliana, UniProt C0LGR3 25-703, fluorescent dye by Monolith Protein Labeling Kit RED-tris-NTA Second Generation (His-tag reactive)); settings: both partners purified
T1 construct: It was cloned into the baculovirus transfer vector pMeIBac B1 for secreted expression; not shown: Strep II-9x His, C-terminal, kept
T1 sequence (looked up): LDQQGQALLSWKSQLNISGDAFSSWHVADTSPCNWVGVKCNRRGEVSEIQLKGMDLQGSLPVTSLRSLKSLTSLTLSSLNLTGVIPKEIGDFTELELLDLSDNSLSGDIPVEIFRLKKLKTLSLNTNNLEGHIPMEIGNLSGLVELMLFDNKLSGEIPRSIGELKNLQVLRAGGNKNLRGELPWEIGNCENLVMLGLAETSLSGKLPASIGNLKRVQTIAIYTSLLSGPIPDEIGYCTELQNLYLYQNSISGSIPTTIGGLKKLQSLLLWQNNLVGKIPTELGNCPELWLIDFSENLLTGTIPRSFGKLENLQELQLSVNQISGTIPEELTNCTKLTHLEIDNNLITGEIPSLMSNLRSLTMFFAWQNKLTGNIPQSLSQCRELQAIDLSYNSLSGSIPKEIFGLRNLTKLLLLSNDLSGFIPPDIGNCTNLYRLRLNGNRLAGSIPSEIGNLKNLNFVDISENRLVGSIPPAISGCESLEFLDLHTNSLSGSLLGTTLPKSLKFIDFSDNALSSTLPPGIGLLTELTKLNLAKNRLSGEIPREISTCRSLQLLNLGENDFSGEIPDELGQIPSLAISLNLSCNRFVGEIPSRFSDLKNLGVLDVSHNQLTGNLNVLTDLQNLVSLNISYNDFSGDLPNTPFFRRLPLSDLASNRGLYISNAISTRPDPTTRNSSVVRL

For `CC(C)C[C@@H](C=O)NC(=O)[C@H](CC(C)C)NC(=O)[C@H](CC(C)C)NC(=O)OCc1ccccc1` [MG132] (Cbz-Leu-Leu-Leu-aldehyde), the “FLS2 accumulation defect of rgi5x” value (26S proteasome) was “partial restoration; also recorded: partially rescued”.

In the case of “PIP1: PATHOGEN-ASSOCIATED MOLECULAR PATTERN (PAMP)-INDUCED PEPTIDE perceived by RLK7 (GRVLTEKSGDGSATMTVEKMKSTVDSWFQRLASGPSPRGRGH; PAMP-induced secreted peptide 1; UniProt Q1PE40 31-72, looked up)”, the “FLS2 transcription” value (FLS2 transcription) is given as “upregulation of FLS2 transcription”.

For “RALF23: FER ligand; RAPID ALKALINIZATION FACTOR peptide (ATRRYISYGALRRNTIPCSRRGASYYNCRRGAQANPYSRGCSAITRCRRS; Protein RALF-like 23; UniProt Q9LUS7 89-138, looked up)”, the “PRR-BAK1 complex formation” value (PRR-BAK1 complex) is given as “inhibits PRR‐BAK1 complex formation”.

B1: GLV2 peptide without sulfated tyrosine (GLV2^-S) (peptide)
peptide: DMDYNSANKKRPIHN
modifications: without sulfated tyrosine
notes: mature GLV2 peptide cut from the GLV2 precursor, Arabidopsis thaliana, tyrosine not sulfated; also called GLV^-S; source: synthetic peptide (Pepmic, Suzhou, China; purity minimum 90%)
For B1, the Kd [1] was 129 nM.

B2: GOLVEN2 (GLV2) peptide, tyrosine-sulfated (peptide)
peptide: DMDY(SO3H)NSANKKR[Hyp]IHN
notes: mature GLV2 peptide cut from the GLV2 precursor, Arabidopsis thaliana; also called synthetic GLV2; source: synthetic peptide (Pepmic, Suzhou, China; purity minimum 90%)
B2 showed a Kd [1] of 11.8 nM.
